# Experimental data: US20190072541A1, “BIOMARKERS FOR TREATMENT OF ALOPECIA AREATA” (THE TRUSTEES OF COLUMBIA UNIVERSITY IN THE CITY OF NEW YORK, priority 2015, published 2019)
# Experiments:
# [1] = system: patients with moderate to severe AA; assay: Oral ruxolitinib in three patients with moderate to severe AA (hair regrowth, biopsies); assay type: in vivo, human
# Procedure: Skin punch biopsies (4 mm) were obtained at baseline and after 12 weeks of treatment.
# For immunohistochemical studies of human skin, 5 μM formalin fixed and paraffin skin section were used. […] ImmPRESS HRP Anti Rabbit Ig or Mouse Ig (Peroxidase) Polymer (Vector Lab) were used as secondary antibody.
# The IFN and CTL signatures were used to develop a bivariate score statistic. Individual signature IFN and CTL scores were determined following procedures used in human SLE. The sets of genes selected to comprise the IFN and CTL signatures were CD8A, GZMB, and ICOS for the CTL signature, and CXCL9, CXCL10, CXCL11, STAT1, and MX1 for the IFN signature.
# [2] = system: patients with moderate to severe AA; assay: Open-label trial of oral ruxolitinib in 12 patients with moderate to severe AA: hair regrowth (SALT); assay type: in vivo, human
# Description: (§1) The study's primary efficacy endpoint was the proportion of responders at end of treatment, defined as those subjects achieving at least 50% regrowth compared to baseline assessed by the Severity of Alopecia Tool (SALT) score, a standardized, validated method for estimating hair loss in AA. Secondary efficacy endpoints included hair re-growth as a continuous variable. […] To assess response durability, responders were followed for 3 months after treatment was completed. Safety analysis was included as a secondary endpoint for all subjects who received at least one dose of ruxolitinib and was monitored as described at monthly visits.
# [3] = system: ALADIN CTL, IFN and KRT signatures; assay: Skin biopsy gene expression / ALADIN scores in ruxolitinib trial; assay type: in vivo, human
# Description: Biopsies and peripheral blood were obtained at baseline and after 12 weeks for immune monitoring and molecular studies. Several patients provided additional biopsies at intermediate time points during the course of treatment, and one patient provided an additional sample at week 24. Tissues specimens were fixed and stored in PAXgene Tissue Containers. Total RNA was extracted from skin biopsy specimens harvested during the course of the clinical trial using the PAXgene tissue miRNA kit. Library prep was performed for microarray analysis using Ovation RNA Amplification System V2 and Biotin Encore kits (NuGen Technologies, Inc., San Carlos, Calif.). Samples were subsequently hybridized to Human Genome U133 Plus 2.0 chips (Affymetrix, Santa Clara, Calif.) and scanned at the Yale Center for Genome Analysis. Library prep and microarray hybridization of RNA extracted from skin biopsies from three healthy controls were performed together with the samples from the treated patients for a total of 31 samples. Gene expression analyses included calculation of ALADIN scores, differential expression analysis of the expression levels for the identification of gene expression signatures, principal component analysis, and statistical analysis of the ALADIN scores. Microarray data from the 31 samples have been deposited in GEO under accession number GSE80342.
# ALADIN scores were calculated for all […] using the batch corrected expression data. The CTL, IFN, and KRT ALADIN scores were determined following procedures outlined previously. Briefly, z-scores are calculated for each PSID relative to the mean and standard deviation of normal controls. Scores for each gene are obtained by averaging z-scores of PSIDs mapping to that gene. Signature scores are then calculated averages of the scores for genes belonging to the corresponding signature.
# In order to examine possible differences between each of the CTL, IFN, and KRT ALADIN scores in responders and non-responders, in responders and normal controls and in non-responders and normal controls, the inventors tested for differences among the three groups using a Kruskal-Wallis test, followed by Wilcoxon Rank Sum tests as implemented in the coin package in R. The inventors then examined the change between baseline and ALADIN scores at 12 weeks for responders using Wilcoxon Signed Rank test as implemented in the coin package in R. The inventors further tested for differences in the three scores between responders at 12 weeks and normal controls.
# [4] = system: patients with moderate to severe AA; assay: Adverse events in ruxolitinib trial; settings: in vivo
# Description: as §1
# Adverse events were assessed at every monthly visit. Patients were also encouraged to contact the study center in the interim between visits if they developed new signs or symptoms of concern.
# [5] = system: C3H/HeJ grafted mice; assay: Prevention of AA in C3H/HeJ skin graft model, systemic treatment from time of grafting; assay type: in vivo, mouse; settings: systemic administration from the time of grafting
# Description: IL-2 and IL-15 are well-known drivers of cytotoxic activity by IFN-γ-producing CD8+ effector T cells and NK cells and have been implicated in the induction and/or maintenance of autoreactive CD8+ T cells. To test the efficacy of IFN-γ- and γ c-targeted therapies in vivo, the inventors used the well-established graft model of AA, in which skin grafts from mice with spontaneous AA are transferred onto the backs of unaffected 10-week-old recipient C3H/HeJ mice. In this model, AA develops reliably in 95-100% of grafted recipients within 6-10 weeks, allowing us to test interventions aimed at either preventing or reversing disease.
# C3H/HeJ mouse strain (Jackson Laboratories, Bar Harbor, Me.) was used for all animal studies. Only female mice were used. Mouse recipients of alopecic skin grafts were aged 7-10 weeks at the time of grafting. For prevention experiments, drug administration began the day after grafting. For systemic treatment studies, drug administration was initiated approximately 3 months after mice lost their hair. For topical treatment studies, drug administration was initiated 20 weeks following grafting. […]
# For the prevention experiments, a time-to-event survival analysis for interval censored data was performed. […] Hair growth index was calculated.
# [6] = system: CTL effectors from C3H/HeJ mice; assay: IL-15 responses in cultured CTL effectors; assay type: cell-based, mouse
# [7] = system: dermal sheath cells; assay: CTL killing of dermal sheath cells; assay type: cell-based, mouse
# [8] = system: C3H/HeJ grafted mice with established AA; assay: Systemic treatment of established AA in grafted C3H/HeJ mice; assay type: in vivo, mouse
# Description: C3H/HeJ mouse strain (Jackson Laboratories, Bar Harbor, Me.) was used for all animal studies. Only female mice were used. Mouse recipients of alopecic skin grafts were aged 7-10 weeks at the time of grafting. For prevention experiments, drug administration began the day after grafting. […] For topical treatment studies, drug administration was initiated 20 weeks following grafting. All animal procedures were done according to protocols approved by the Columbia University Medical Center Institutional Animal Care and Use Committee.
# [9] = system: C3H/HeJ mice with long-standing AA; assay: Topical treatment of established AA in grafted C3H/HeJ mice; assay type: in vivo, mouse; settings: applied to back skin
# Description: This experiment was repeated three times. […] NS, not significant. […] Scale bar, 100 μm. […] Scale bar, 200 μm.
# Only female mice were used.
# [10] = system: CXCL10; assay: Serum CXCL10 ELISA in tofacitinib-treated AA patient; assay type: in vivo, human; settings: baseline vs 4 weeks of treatment
# Procedure: (§2) Punch biopsies of the scalp (FIG. 17) and blood draws were performed at baseline and after 4 weeks of treatment to monitor gene expression and biomarker changes. […] In addition, microarray analysis was performed on the skin biopsy samples.
# [11] = system: ALADIN IFN and CTL signatures; assay: ALADIN scores of scalp biopsies in tofacitinib-treated AA patient; assay type: in vivo, human; settings: baseline vs 4 weeks of treatment
# Procedure: as §2
# [12] = system: patient with persistent moderate/severe AA; assay: Oral tofacitinib in one patient with persistent moderate/severe AA (hair regrowth, safety)
# [13] = systemic therapy initiated 7 weeks after grafting
structure (smiles),measurement,setting,value
N#CC[C@H](C1CCCC1)n1cc(-c2ncnc3[nH]ccc23)cn1 [ruxolitinib],regrowth achieved,[1]; oral 20 mg BID for at least 3 months,over 90%
same,time to near-complete hair regrowth,"[1]; oral, 20 mg twice daily",3 to 5 months
same,proportion of patients achieving the primary outcome of at least 50% regrowth,"[2]; 20 mg PO twice daily, 3 to 6 months, nine of twelve patients",75%
same,mean SALT score at 3 months,[2]; baseline 65.8±28.0%,24.8±22.9%
same,mean SALT score at the end of 6 months of treatment,"[2]; baseline 65.8±28.0%, p<0.004",7.3±13.5%
same,average hair regrowth at the end of treatment,[2]; nine responding patients,92%
same,"reduction in hair loss from baseline, responders as a group",[2]; responders,92%
same,"CTL score at week 12, overall","[3]; all patients, baseline 8.30, p<0.004",1.51
same,"IFN score at week 12, overall","[3]; all patients, baseline 31.08, p<0.004",−0.37
same,"KRT score at week 12, overall","[3]; all patients, baseline −39.36, p=0.054",−15.02
same,"CTL score at week 12, responders only","[3]; baseline 9.37, p<0.008",1.6
same,"IFN score at week 12, responders only","[3]; baseline 38.37, p<0.008",0.24
same,"KRT score at week 12, responders only","[3]; baseline −37.84, p=0.039",−15.42
same,earliest time decreased IFN and CTL scores were demonstrable after the initiation of treatment,[3]; post-treatment biopsies,2 weeks
same,URI/allergy symptoms,[4]; human,9 episodes
same,GI symptoms,[4],mild GI symptoms
same,UTI,[4],one UTI
same,acne or scalp folliculitis,[4],Two patients developed lesions consistent with acne or scalp folliculitis
same,bacterial skin infections,[4],three minor bacterial skin infections (in the same patient)
same,conjunctival hemorrhage,[4],one conjunctival hemorrhage following a surgical procedure
same,discontinuation of therapy,[4],no patients required discontinuation of therapy
same,hemoglobin,[4],"One patient developed lowered hemoglobin, which resolved with dose modification"
same,hepatic abnormalities,[4],No hepatic abnormalities were observed
same,platelet counts,[4],No significant decline in platelet counts
same,pneumonia,[4],one mild pneumonia
same,serious adverse effects,[4],no serious adverse effects
same,white blood cell counts,[4],modest declines of white blood cell counts initially but levels remained within normal limits
C[C@@H]1CCN(C(=O)CC#N)C[C@@H]1N(C)c1ncnc2[nH]ccc12 [tofacitinib],AA development in grafted recipients,[5],prevented the development of AA
same,"CD8+NKG2D+ T cells in the skin (infiltration, accumulation, expansion)",[5],prevented
same,IL-15-induced upregulation of granzyme B and IFN-γ expression,[6],blocked
same,IL-15-triggered pSTAT5 activation,[6]; cultured CTL effectors,blocked
same,killing of dermal sheath cells,[7],blocked
same,persistence of effects after the cessation of treatment,[8]; systemic therapy,2-3 months
same,frequency of CD8+NKG2D+ T cells,[8]; [13],reduced the frequency of CD8+NKG2D+ T cells
same,hair regrowth,[8]; [13],substantial hair regrowth all over the body
same,histological markers,[8]; [13],reversed histological markers
same,reversal of disease in treated lesions,[9],highly effective in reversing disease in treated lesions
same,serum levels of CXCL10,[10],decreased after 4 weeks of treatment
same,IFN and CTL signatures (ALADIN),[11],"decreased by 4 weeks of treatment, although not to the level of normal controls"
same,hair loss 8 weeks following cessation of treatment,[12]; FIG. 16 left panel,Minimal hair loss
same,hair loss 16 weeks following cessation of treatment,[12]; FIG. 16 right panel,almost complete loss of scalp hair
same,outcome after cessation of treatment,"[12]; human, in vivo",near-complete hair loss
same,adverse events,[12]; oral 5 mg twice daily,no adverse events reported
same,hair regrowth at month 1,[12]; oral 5 mg twice daily,Patchy regrowth
same,"laboratory abnormalities (complete blood count, complete metabolic panel, lipid profile)",[12]; oral 5 mg twice daily,no laboratory abnormalities
same,regrowth of eyebrows and eyelashes,[12]; oral 5 mg twice daily,Significant regrowth
same,scalp hair regrowth 4 months after initiating treatment,[12]; oral 5 mg twice daily,nearly complete
same,scalp hair regrowth after three months of treatment,[12]; oral 5 mg twice daily,94%
same,scalp hair regrowth after two months of treatment,[12]; oral 5 mg twice daily,62.5%
